Laboratory results published in patent US8338565B2, “Macrocyclic compounds for inhibition of tumor necrosis factor alpha” (Ensemble Therapeutics Corporation, priority 2008, dated 2012).
Like-named read-outs stand apart in the source and are kept apart here. Numbered stars: 1 amine (or outer) side, 2 acyl side, 3 side chain; on linkers, the order of the positions; unused ones are H or OH. Bridge positions count the residues as written; N and C are the ends. Square brackets hold non-standard residues; d marks the D form. Peptide text beside a SMILES is read from it. Phe(4-CF3) = N[C@@H](Cc1ccc(C(F)(F)F)cc1)C(=O)O; dBip = N[C@H](Cc1ccc(-c2ccccc2)cc1)C(=O)O; dPhe(4-NH2) = Nc1ccc(C[C@@H](N)C(=O)O)cc1; d(hPhe) = N[C@H](CCc1ccccc1)C(=O)O; 2Thi = N[C@@H](Cc1cccs1)C(=O)O; Suc = O=C(CCC(=O)[*:2])[*:1]

Key:
[1] = tested on: TNF-α (degradation of IkB in HeLa cells or A431 cells); assay: Human cell-based assay: inhibition of TNF-α induced degradation of IkB; conditions: for inhibition at 5 µM: read-out: Inhibition at Various Compound Concentrations, 5 μM; for inhibition at 10 µM: read-out: Inhibition at Various Compound Concentrations, 10 μM
rat paw edema model = assay: Rat paw edema model (carrageenan), anti-inflammatory activity; type: in vivo, Sprague-Dawley (SD) rats
Protocol: Compounds 3, 4, 10 and 202 were tested in a rat paw edema model to determine anti-inflammatory activity. Seven groups (one for Vehicle A [15 mL PEG400, 3 mL Graves Grain alcohol (190 proof), 1.8 mL dimethylacetamide and 10.2 mL deionized water] alone as a negative control, one for Vehicle B [0.1M NaHCO3] alone as a negative control, one for each of the four test compounds dissolved in Vehicle A, and one for indomethacin dissolved in Vehicle B as a positive control), each group containing six Sprague-Dawley (SD) rats (180-200 g) randomized by weight. Initial paw volumes were measured by placing the right hind limb of the rat up to the top of the hock in a beaker of water sitting on a scale that had been tared to zero and recording the readout.
Rats were pre-treated with either i) one of the test compounds, or ii) a positive or negative control. Vehicle A alone and test compound dissolved in Vehicle A (Compound 3-1.0 mg/kg; Compound 4-0.4 mg/kg; Compound 10-0.5 mg/kg; Compound 202-0.3 mg/kg) were administered by intravenous injection. Vehicle B alone and indomethacin (5 mg/kg in 0.1M NaHCO3) was administered by intraperitoneal injection. Thirty minutes after this pretreatment, rats were anesthetized and injected with 0.1 mL of carrageenan (10 mg/mL in water) in the subplantar region of the right hind foot using a ½ inch 26 gauge needle attached to a 1 cc syringe.
At 2, 4 and 6 hours post-carrageenan injection, the right hind foot of each rat was measured for paw volume as described above.
We next investigated the effect of varying intravenous doses of Compound 202 (0.05, 0.10, 0.30, and 1.00 mg/kg) in the same model using the same protocol (6 rats per group). […] We also investigated the affect of oral dosing (10 mg/kg) of Compound 202 in the same model. For oral dosing, a 2.5 mg/mL suspension of Compound 202 was prepared in Vehicle A. Rats were orally administered 4 mL/kg of that suspension.

[2] = target: T1, TNFα / TNFα receptor (TNFα R1/Fc) (Homo sapiens, UniProt P01375); assay: Inhibition of binding of TNFα to the TNFα receptor (plate ELISA competition); conditions: Table 2; read-out: Activity (IC50, inhibition of TNFα binding to TNFα R1/Fc)
T1 construct: purchased R&D Systems
Procedure, shortened: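 Compound dilutions were preincubated 30 min at RT with 8.33 nM TNFα R1/Fc in PBST with 2% DMSO, then added to wells coated with 15 nM TNFα for 30 min. Bound receptor was detected with HRP anti-human Fc and TMB, read as A450.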

[3] = 5 μM compound, HeLa or A431 cells
[4] = 10 μM compound, HeLa or A431 cells
[5] = Table 8, 1 mg/kg IV, 2 h post-carrageenan
[6] = Table 8, 1 mg/kg IV, 4 h post-carrageenan
[7] = Table 8, 1 mg/kg IV, 6 h post-carrageenan

T1 sequence (P01375 77-233 limits assumed, species assumed): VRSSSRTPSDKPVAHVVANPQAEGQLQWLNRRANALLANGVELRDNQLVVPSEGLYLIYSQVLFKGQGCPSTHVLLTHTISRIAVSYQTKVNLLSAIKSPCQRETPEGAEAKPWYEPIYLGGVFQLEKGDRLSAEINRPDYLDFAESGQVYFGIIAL

O=C(O)[C@@H]1Cc2ccc(cc2)NC(=O)[C@H](O)[C@@H](O)C(=O)N[C@@H](Cc2cccs2)C(=O)N[C@@H](Cc2ccc(-c3ccccc3)cc2)C(=O)N[C@@H](Cc2ccccc2)C(=O)N1 [Compound 273]
inhibition at 5 µM [1, 3]: 10 to 50% | inhibition at 10 µM [1, 4]: < 10% | Change in Paw Volume (rat paw edema model; Table 7, 1 mg/kg IV, 2 h post-carrageenan): 1.13 ± 0.09 mL | Change in Paw Volume (rat paw edema model; Table 7, 1 mg/kg IV, 4 h post-carrageenan): 1.52 ± 0.12 mL | Change in Paw Volume (rat paw edema model; Table 7, 1 mg/kg IV, 6 h post-carrageenan): 1.59 ± 0.16 mL | IC50 [2]: > 100 µM

O=C1COc2ccc(cc2)C[C@@H](C(=O)O)NC(=O)[C@H](Cc2ccc(O)cc2)NC(=O)[C@H](Cc2ccc(-c3ccccc3)cc2)NC(=O)[C@H](Cc2cccs2)N1 [Compound 428]
inhibition at 5 µM [1]: < 10% | inhibition at 10 µM [1]: < 10% | Change in Paw Volume (rat paw edema model; [5]): 1.27 ± 0.15 mL | Change in Paw Volume (rat paw edema model; [6]): 1.43 ± 0.22 mL | Change in Paw Volume (rat paw edema model; [7]): 1.39 ± 0.22 mL | IC50 [2]: < 10 µM

O=C1CCC(=O)N[C@H](CCc2ccccc2)C(=O)N[C@@H](Cc2ccc(C(F)(F)F)cc2)C(=O)N[C@H](Cc2ccccc2)C(=O)N[C@@H](C(=O)O)Cc2ccc(cc2)N1 [Compound 3] ([d(hPhe)][Phe(4-CF3)][dF][dPhe(4-NH2)]-OH; linker N-4 via Suc)
inhibition at 5 µM [1, 3]: < 10% | inhibition at 10 µM [1, 4]: < 10% | Change in Paw Volume (rat paw edema model; Table 3, 1.0 mg/kg IV, 2 h post-carrageenan): 0.69 ± 0.14 mL | Change in Paw Volume (rat paw edema model; Table 3, 1.0 mg/kg IV, 4 h post-carrageenan): 1.16 ± 0.32 mL | Change in Paw Volume (rat paw edema model; Table 3, 1.0 mg/kg IV, 6 h post-carrageenan): 1.22 ± 0.31 mL | IC50 [2]: 10 to 30 µM

COc1ccc2c(c1)c(CC(=O)O)c(C)n2C(=O)c1ccc(Cl)cc1 [indomethacin, reference compound]
Change in Paw Volume (rat paw edema model; Table 3, positive control 5 mg/kg IP, 2 h post-carrageenan): 0.61 ± 0.10 mL | Change in Paw Volume (rat paw edema model; Table 3, positive control 5 mg/kg IP, 4 h post-carrageenan): 0.92 ± 0.12 mL | Change in Paw Volume (rat paw edema model; Table 3, positive control 5 mg/kg IP, 6 h post-carrageenan): 0.99 ± 0.10 mL | Change in Paw Volume (rat paw edema model; Table 4, positive control IP (5 mg/kg), 2 h post-carrageenan): 0.61 ± 0.08 mL | Change in Paw Volume (rat paw edema model; Table 4, positive control IP (5 mg/kg), 4 h post-carrageenan): 0.82 ± 0.05 mL | Change in Paw Volume (rat paw edema model; Table 4, positive control IP (5 mg/kg), 6 h post-carrageenan): 0.90 ± 0.11 mL | Change in Paw Volume (rat paw edema model; Table 5, positive control IP (5 mg/kg), 2 h post-carrageenan): 0.82 ± 0.08 mL | Change in Paw Volume (rat paw edema model; Table 5, positive control IP (5 mg/kg), 4 h post-carrageenan): 0.94 ± 0.10 mL | Change in Paw Volume (rat paw edema model; Table 5, positive control IP (5 mg/kg), 6 h post-carrageenan): 0.87 ± 0.11 mL | Change in Paw Volume (rat paw edema model; Table 6, positive control IP (5 mg/kg), 2 h post-carrageenan): 0.63 ± 0.08 mL | Change in Paw Volume (rat paw edema model; Table 6, positive control IP (5 mg/kg), 4 h post-carrageenan): 0.79 ± 0.17 mL | Change in Paw Volume (rat paw edema model; Table 6, positive control IP (5 mg/kg), 6 h post-carrageenan): 0.82 ± 0.21 mL | Change in Paw Volume (rat paw edema model; Table 7, positive control IP (5 mg/kg), 2 h post-carrageenan): 0.75 ± 0.14 mL | Change in Paw Volume (rat paw edema model; Table 7, positive control IP (5 mg/kg), 4 h post-carrageenan): 1.02 ± 0.09 mL | Change in Paw Volume (rat paw edema model; Table 7, positive control IP (5 mg/kg), 6 h post-carrageenan): 1.07 ± 0.08 mL | Change in Paw Volume (rat paw edema model; Table 8, positive control IP (5 mg/kg), 2 h post-carrageenan): 0.76 ± 0.13 mL | Change in Paw Volume (rat paw edema model; Table 8, positive control IP (5 mg/kg), 4 h post-carrageenan): 0.92 ± 0.09 mL | Change in Paw Volume (rat paw edema model; Table 8, positive control IP (5 mg/kg), 6 h post-carrageenan): 0.74 ± 0.08 mL | Change in Paw Volume (rat paw edema model; Table 9, positive control IP (5 mg/kg), 2 h post-carrageenan): 0.75 ± 0.14 mL | Change in Paw Volume (rat paw edema model; Table 9, positive control IP (5 mg/kg), 4 h post-carrageenan): 1.02 ± 0.09 mL | Change in Paw Volume (rat paw edema model; Table 9, positive control IP (5 mg/kg), 6 h post-carrageenan): 1.07 ± 0.08 mL | Change in Paw Volume (rat paw edema model; Table 10, positive control IP (5 mg/kg), 2 h post-carrageenan): 0.63 ± 0.08 mL | Change in Paw Volume (rat paw edema model; Table 10, positive control IP (5 mg/kg), 4 h post-carrageenan): 0.79 ± 0.17 mL | Change in Paw Volume (rat paw edema model; Table 10, positive control IP (5 mg/kg), 6 h post-carrageenan): 0.82 ± 0.21 mL

O=C1COc2ccc(cc2)C[C@@H](C(=O)O)NC(=O)[C@H](CCc2ccccc2)NC(=O)[C@@H](Cc2ccc(-c3ccccc3)cc2)NC(=O)[C@H](Cc2ccncc2)N1 [Compound 506]
Change in Paw Volume (rat paw edema model; Table 5, 1 mg/kg IV, 2 h post-carrageenan): 0.74 ± 0.18 mL | Change in Paw Volume (rat paw edema model; Table 5, 1 mg/kg IV, 4 h post-carrageenan): 1.05 ± 0.17 mL | Change in Paw Volume (rat paw edema model; Table 5, 1 mg/kg IV, 6 h post-carrageenan): 0.86 ± 0.15 mL | IC50 [2]: < 10 µM

O=C1CCC(=O)N[C@@H](Cc2cccs2)C(=O)N[C@H](Cc2ccc(-c3ccccc3)cc2)C(=O)N[C@@H](Cc2ccccc2)C(=O)N[C@@H](C(=O)O)Cc2ccc(cc2)N1 [Compound 500] ([2Thi][dBip]F[dPhe(4-NH2)]-OH; linker N-4 via Suc)
Change in Paw Volume (rat paw edema model; [5]): 0.98 ± 0.24 mL | Change in Paw Volume (rat paw edema model; [6]): 1.07 ± 0.21 mL | Change in Paw Volume (rat paw edema model; [7]): 0.98 ± 0.14 mL | IC50 [2]: 10 to 30 µM
